Measured values taken from publication PMC4354951 (European journal of medicinal chemistry, 2008).
“Also recorded” adds a separate entry of the source. Values belong to the molecule of their own block, whether it stands above or below them.

Legend:
P2Y1R = details: cited from earlier work
human NTPDase1 = biological target: T1, human NTPDase1 (Homo sapiens, UniProt P49961); test: Hydrolysis by NTPDase1; format: biochemical
T1 sequence (P49961 1-510): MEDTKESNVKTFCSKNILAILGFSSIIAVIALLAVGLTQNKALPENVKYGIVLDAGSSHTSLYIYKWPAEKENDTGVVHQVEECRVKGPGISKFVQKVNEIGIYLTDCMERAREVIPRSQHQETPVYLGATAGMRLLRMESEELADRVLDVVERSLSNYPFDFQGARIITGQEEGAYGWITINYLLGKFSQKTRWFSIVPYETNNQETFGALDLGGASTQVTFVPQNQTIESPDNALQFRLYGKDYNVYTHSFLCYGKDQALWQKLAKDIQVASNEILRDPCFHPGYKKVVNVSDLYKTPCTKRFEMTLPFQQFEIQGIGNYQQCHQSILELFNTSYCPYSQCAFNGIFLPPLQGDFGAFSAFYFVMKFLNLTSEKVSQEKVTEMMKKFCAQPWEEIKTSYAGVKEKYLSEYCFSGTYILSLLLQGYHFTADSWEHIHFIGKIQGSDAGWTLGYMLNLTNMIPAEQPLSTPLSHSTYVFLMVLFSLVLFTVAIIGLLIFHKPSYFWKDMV

human NTPDase3 = biological target: T2, human NTPDase3 (Homo sapiens, UniProt O75355); test: Hydrolysis by NTPDase3; format: biochemical
T2 sequence (O75355 1-529): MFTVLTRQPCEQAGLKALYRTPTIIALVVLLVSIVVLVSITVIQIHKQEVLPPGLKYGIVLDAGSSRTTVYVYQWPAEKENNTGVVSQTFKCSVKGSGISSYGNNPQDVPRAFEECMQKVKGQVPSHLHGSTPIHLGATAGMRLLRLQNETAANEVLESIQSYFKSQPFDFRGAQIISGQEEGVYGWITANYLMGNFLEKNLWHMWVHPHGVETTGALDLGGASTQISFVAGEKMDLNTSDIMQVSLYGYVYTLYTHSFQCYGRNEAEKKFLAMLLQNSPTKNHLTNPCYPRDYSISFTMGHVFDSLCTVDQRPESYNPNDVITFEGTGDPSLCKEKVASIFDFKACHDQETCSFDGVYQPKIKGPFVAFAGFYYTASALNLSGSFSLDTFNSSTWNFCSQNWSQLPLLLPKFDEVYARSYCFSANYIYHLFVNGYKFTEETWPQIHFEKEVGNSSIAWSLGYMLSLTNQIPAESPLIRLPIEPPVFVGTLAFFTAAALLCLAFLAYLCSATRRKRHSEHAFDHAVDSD

rat P2Y6 receptor = rat P2Y6 receptor (Rattus norvegicus, UniProt Q63371); test: Increase in [Ca2+]i in 1321N1 astrocytoma cells expressing P2Y6 receptor; format: cell-based; details: read-out: EC50 of analogue-induced increase in [Ca2+]i, P2Y6; 1321N1 cell transfectants
Sequence of rat P2Y6 receptor (Q63371 whole entry): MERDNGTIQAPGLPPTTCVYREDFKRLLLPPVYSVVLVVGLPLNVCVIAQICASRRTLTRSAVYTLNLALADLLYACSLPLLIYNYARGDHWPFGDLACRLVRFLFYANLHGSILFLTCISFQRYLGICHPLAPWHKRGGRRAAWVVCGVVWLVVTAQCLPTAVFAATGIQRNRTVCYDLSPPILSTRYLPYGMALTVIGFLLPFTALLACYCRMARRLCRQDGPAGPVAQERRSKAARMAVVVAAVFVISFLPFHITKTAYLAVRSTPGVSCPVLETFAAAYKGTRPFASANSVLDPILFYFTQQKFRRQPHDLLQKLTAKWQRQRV

human P2Y2 receptor = human P2Y2 receptor (Homo sapiens, UniProt P41231); test: Increase in [Ca2+]i in 1321N1 astrocytoma cells expressing P2Y2 receptor; format: cell-based; details: read-out: EC50 of analogue-induced increase in [Ca2+]i, P2Y2; 1321N1 cell transfectants
Sequence of human P2Y2 receptor (P41231 whole entry): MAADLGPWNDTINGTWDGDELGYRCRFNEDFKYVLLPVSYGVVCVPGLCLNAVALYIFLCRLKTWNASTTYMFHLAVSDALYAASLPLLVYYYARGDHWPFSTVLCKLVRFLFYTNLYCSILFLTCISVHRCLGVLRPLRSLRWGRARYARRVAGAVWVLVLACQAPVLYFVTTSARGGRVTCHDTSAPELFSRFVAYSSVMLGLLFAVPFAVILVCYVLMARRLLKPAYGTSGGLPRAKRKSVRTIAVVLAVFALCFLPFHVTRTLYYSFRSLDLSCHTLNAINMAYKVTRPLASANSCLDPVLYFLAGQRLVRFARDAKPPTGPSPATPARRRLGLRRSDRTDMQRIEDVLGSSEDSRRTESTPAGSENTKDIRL

human NTPDase8 = biological target: T3, human NTPDase8 (Homo sapiens, UniProt Q5MY95); test: Hydrolysis by NTPDase8; format: biochemical
T3 sequence (Q5MY95 1-495): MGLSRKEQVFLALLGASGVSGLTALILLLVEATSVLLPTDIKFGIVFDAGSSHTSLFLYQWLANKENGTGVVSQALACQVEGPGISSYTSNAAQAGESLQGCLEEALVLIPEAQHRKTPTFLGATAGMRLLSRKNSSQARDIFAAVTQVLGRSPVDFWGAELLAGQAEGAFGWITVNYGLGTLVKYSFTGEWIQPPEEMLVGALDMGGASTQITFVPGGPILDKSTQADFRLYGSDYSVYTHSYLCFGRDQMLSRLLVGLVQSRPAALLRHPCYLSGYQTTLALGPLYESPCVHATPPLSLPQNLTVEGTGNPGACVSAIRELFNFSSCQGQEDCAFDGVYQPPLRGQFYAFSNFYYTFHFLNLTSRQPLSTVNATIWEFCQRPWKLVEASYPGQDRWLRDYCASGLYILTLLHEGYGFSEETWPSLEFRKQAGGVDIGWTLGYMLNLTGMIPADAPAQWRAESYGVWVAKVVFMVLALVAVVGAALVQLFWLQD

[1] = Stability in human blood serum, Method B
human P2Y4 receptor = human P2Y4 receptor (Homo sapiens, UniProt P51582); test: Increase in [Ca2+]i in 1321N1 astrocytoma cells expressing P2Y4 receptor; format: cell-based; details: read-out: EC50 of analogue-induced increase in [Ca2+]i, P2Y4; 1321N1 cell transfectants
Sequence of human P2Y4 receptor (P51582 whole entry): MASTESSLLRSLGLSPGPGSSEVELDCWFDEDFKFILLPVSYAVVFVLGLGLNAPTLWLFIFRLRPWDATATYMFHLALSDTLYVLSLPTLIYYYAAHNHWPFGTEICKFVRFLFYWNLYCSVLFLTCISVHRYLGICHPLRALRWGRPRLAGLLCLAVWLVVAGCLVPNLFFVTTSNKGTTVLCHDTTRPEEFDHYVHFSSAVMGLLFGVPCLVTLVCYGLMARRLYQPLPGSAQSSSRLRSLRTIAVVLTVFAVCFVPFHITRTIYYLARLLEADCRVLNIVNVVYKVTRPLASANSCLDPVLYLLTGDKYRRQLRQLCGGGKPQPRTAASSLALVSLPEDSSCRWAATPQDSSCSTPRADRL

human NTPDase2 = biological target: T4, human NTPDase2 (Homo sapiens, UniProt Q9Y5L3); test: Hydrolysis by NTPDase2; format: biochemical; details: 100 μM substrate; relative to ATP hydrolysis (100%)
T4 sequence (Q9Y5L3 1-495): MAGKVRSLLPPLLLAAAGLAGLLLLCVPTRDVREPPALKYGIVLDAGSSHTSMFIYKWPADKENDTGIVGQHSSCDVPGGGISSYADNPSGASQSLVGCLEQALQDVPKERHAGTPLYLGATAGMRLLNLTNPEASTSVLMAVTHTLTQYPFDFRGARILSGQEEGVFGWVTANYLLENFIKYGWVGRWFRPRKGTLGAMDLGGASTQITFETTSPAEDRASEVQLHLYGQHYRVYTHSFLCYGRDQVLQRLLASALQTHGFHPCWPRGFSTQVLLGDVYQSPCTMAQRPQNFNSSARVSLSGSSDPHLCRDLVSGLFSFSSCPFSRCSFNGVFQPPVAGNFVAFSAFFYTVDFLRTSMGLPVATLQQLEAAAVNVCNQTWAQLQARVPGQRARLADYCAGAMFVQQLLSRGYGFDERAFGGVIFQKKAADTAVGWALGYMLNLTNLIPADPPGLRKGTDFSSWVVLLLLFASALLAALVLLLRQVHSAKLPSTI

turkey P2Y1 receptor = turkey P2Y1 receptor (Meleagris gallopavo, UniProt P49652); format: cell-based; details: 1321N1 cell transfectants
Sequence of turkey P2Y1 receptor (P49652 whole entry): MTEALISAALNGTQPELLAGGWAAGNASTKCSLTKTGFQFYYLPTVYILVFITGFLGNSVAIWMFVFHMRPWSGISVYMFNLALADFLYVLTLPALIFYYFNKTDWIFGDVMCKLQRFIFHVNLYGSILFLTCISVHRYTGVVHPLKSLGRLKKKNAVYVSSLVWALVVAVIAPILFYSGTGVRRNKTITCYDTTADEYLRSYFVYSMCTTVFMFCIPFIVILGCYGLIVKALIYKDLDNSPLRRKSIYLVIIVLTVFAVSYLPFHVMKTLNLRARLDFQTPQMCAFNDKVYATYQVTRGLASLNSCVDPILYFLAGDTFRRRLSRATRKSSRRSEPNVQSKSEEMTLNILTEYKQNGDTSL

[2] = Chemical hydrolysis under gastric juice-like conditions; format: physicochemical
P2Y2R = details: cited from earlier work
[3] = pKa and degree of ionization of phosphate/phosphonate; format: physicochemical; details: physiological conditions, pH 7.4
human NPP1 = biological target: T5, human NPP1 (Homo sapiens, UniProt P22413); test: Hydrolysis by NPP1; format: biochemical
T5 sequence (P22413 1-925): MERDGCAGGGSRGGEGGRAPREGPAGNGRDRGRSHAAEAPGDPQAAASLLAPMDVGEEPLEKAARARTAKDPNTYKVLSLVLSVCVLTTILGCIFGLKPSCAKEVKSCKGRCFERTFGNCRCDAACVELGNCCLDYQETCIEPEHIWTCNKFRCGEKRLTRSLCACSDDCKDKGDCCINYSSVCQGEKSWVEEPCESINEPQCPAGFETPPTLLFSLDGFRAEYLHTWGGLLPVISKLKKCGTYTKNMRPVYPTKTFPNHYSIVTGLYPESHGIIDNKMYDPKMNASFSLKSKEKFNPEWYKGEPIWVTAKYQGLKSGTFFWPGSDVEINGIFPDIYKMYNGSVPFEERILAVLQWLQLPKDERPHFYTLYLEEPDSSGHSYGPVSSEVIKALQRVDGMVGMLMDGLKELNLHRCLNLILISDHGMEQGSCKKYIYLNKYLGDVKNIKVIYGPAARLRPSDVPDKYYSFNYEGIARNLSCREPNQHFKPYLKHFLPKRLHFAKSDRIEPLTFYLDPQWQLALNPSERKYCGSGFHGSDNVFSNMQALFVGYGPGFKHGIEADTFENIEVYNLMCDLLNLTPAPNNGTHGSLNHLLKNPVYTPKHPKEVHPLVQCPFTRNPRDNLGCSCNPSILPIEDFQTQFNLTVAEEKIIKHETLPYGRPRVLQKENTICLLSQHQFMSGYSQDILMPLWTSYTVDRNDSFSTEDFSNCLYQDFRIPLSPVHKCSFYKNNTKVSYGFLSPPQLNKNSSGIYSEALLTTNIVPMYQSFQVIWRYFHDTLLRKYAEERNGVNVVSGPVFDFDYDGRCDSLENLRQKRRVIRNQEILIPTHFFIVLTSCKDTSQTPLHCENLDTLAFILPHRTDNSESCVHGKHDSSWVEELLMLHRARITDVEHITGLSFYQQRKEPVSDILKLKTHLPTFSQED

human NPP3 = biological target: T6, human NPP3 (Homo sapiens, UniProt O14638); test: Hydrolysis by NPP3; format: biochemical
T6 sequence (O14638 1-875): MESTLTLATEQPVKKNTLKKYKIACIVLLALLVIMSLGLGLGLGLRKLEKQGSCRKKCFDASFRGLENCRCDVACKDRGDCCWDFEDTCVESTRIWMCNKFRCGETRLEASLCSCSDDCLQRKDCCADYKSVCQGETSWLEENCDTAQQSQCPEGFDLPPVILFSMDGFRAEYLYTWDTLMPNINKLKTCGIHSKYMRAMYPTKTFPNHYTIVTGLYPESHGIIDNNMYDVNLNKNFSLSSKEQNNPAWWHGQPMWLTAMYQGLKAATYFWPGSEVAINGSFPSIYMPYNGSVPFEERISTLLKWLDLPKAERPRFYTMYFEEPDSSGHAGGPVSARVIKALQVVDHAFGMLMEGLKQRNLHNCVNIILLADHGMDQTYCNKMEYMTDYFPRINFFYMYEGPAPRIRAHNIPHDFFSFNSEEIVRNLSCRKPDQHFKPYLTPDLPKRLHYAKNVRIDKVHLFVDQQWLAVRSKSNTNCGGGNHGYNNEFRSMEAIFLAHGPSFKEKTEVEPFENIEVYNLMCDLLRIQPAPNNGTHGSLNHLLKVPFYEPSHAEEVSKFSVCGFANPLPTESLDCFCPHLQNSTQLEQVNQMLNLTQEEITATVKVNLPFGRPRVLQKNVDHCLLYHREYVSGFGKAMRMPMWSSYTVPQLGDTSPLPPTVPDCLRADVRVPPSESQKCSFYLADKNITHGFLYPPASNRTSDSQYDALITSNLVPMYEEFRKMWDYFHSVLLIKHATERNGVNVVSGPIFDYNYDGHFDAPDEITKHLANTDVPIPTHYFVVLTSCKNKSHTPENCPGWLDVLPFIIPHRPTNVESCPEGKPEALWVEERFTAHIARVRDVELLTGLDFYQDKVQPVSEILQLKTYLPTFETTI

[4] = 100 μM substrate, relative to ATP hydrolysis (100%)
[5] = 100 μM substrate, relative to pnp-TMP hydrolysis (100%)

Molecule: 2-MeS–ATP-α-B [1A]
potency of 1A isomer relative to 1B isomer at P2Y1R (P2Y1R): 20 fold

Molecule: [BH3-][P+](O)(OC[C@H]1O[C@@H](n2cnc3c(N)nc(SC)nc32)[C@H](O)[C@@H]1O)OP(=O)(O)CP(=O)(O)O (single isomer, unassigned) [4B, 2-MeS–adenosine-5′-O-(α-boranotriphosphate)-β,γ-CH2]
Relative activity of NTPDase1 (human NTPDase1; [4]): <1%
Relative activity of NTPDase3 (human NTPDase3; [4]): 2.0 ± 1.0%
EC50 (rat P2Y6 receptor): > 100 µM
EC50 (human P2Y2 receptor): > 100 µM
Relative activity of NTPDase8 (human NTPDase8; [4]): 3.0 ± 07%
t1/2 in human blood serum ([1]; Method B, human blood serum and RPMI-1640, 37 °C): 71.9 h
EC50 (human P2Y4 receptor): > 100 µM
Relative activity of NTPDase2 (human NTPDase2): 1.0 ± 0.3%
agonist activity at P2Y1R (turkey P2Y1 receptor): potent P2Y1R agonists; also recorded: active isomer
EC50 (turkey P2Y1 receptor; read-out: EC50 of analogue-induced increase in [Ca2+]i, P2Y1): 17.2 ± 5.3 µM
t1/2 of acidic hydrolysis ([2]; KCl/HCl buffer pH 1.4, 37 °C, 31P NMR (2) or HPLC-MS (3B, 4B)): 14.5 h

Molecule: BP(=O)(OC[C@H]1O[C@@H](n2cnc3c(N)nc(Cl)nc32)[C@H](O)[C@@H]1O)OP(=O)(O)OP(=O)(O)O (stereo partly drawn) [2-Cl–ATP-α-B, reference compound]
activity at P2Y2R (P2Y2R): very weak agonists

fraction ionized [3]: 91%
Molecule: CSc1nc(N)c2ncn([C@@H]3O[C@H](COP(=O)(O)OP(=O)(O)O)[C@@H](O)[C@H]3O)c2n1 [2-MeS-ADP]

fraction ionized [3]: 91%
Molecule: CSc1nc(N)c2ncn([C@@H]3O[C@H](COP(=O)(O)OP(=O)(O)OP(=O)(O)O)[C@@H](O)[C@H]3O)c2n1 [2-MeS–ATP]

Molecule: Nc1ncnc2c1ncn2[C@@H]1O[C@H](COP(=O)(O)OP(=O)(O)O)[C@@H](O)[C@H]1O [ADP]
EC50 (P2Y1R; read-out: EC50 at P2Y1R, endogenous agonist ref 1): ~0.1 µM

ATPase activity (100%) of NTPDase1 (human NTPDase1; 100 μM ATP): 497 ± 38 nmol Pi/min·mg protein
ATPase activity (100%) of NTPDase3 (human NTPDase3; 100 μM ATP): 493 ± 21 nmol Pi/min·mg protein
ATPase activity (100%) of NTPDase8 (human NTPDase8; 100 μM ATP): 173 ± 18 nmol Pi/min·mg protein
Molecule: Nc1ncnc2c1ncn2[C@@H]1O[C@H](COP(=O)(O)OP(=O)(O)OP(=O)(O)O)[C@@H](O)[C@H]1O [ATP, reference compound]

Molecule: BP(=O)(OC[C@H]1O[C@@H](n2cnc3c(N)ncnc32)[C@H](O)[C@@H]1O)OP(=O)(O)CP(=O)(O)O (stereo partly drawn) [compound 3, Adenosine-5′-O-(α-boranotriphosphate)-β,γ-CH2]
improvement of chemical stability as compared to 1 ([2]; pH 1.4, 37 °C): ca. 3 fold

Molecule: BP(=O)(OC[C@H]1O[C@@H](n2cnc3c(N)nc(SC)nc32)[C@H](O)[C@@H]1O)OP(=O)(O)CP(=O)(O)O (stereo partly drawn) [compound 4, 2-MeS–adenosine-5′-O-(α-boranotriphosphate)-β,γ-CH2]
enhancement of the metabolic stability of ATP ([1]; human blood serum, half-life vs ATP): ≥ 20 fold

Molecule: Cc1cn([C@H]2C[C@H](O)[C@@H](COP(=O)(O)Oc3ccc([N+](=O)[O-])cc3)O2)c(=O)[nH]c1=O [pnp-TMP, p-nitrophenylthymidine-5′-monophosphate, reference compound]
100% activity of NPP1 with pnp-TMP as substrate (human NPP1; 100 μM pnp-TMP): 24 ± 2 nmol p-nitrophenol/min·mg protein
Relative activity of NPP1 (human NPP1; [5]): 100%
100% activity of NPP3 with pnp-TMP as substrate (human NPP3; 100 μM pnp-TMP): 53 ± 4 nmol p-nitrophenol/min·mg protein
Relative activity of NPP3 (human NPP3; [5]): 100%
